From patent publication US8691772B2, “HSP60, HSP60 peptides and T cell vaccines for immunomodulation” (Yeda Research and Development Co. Ltd., priority 2005, dated 2014)
Ends that are not written are not given here.

Legend:
SOCS3 = SOCS3 expression in human T cells (immunoblot); assay type: cell-based; settings: for effect of blocker on HSP60-induced SOCS3 activation: human T cells pre-treated with blocker
HSP60 = HSP60 expression in activated T cells by western blot; assay type: cell-based, Lewis rats; settings: LNC with Con A; A2b clone with peptide, 72 hr
Method: Western blotting. Cell lysates of resting or activated T cells were prepared by treatment for 15 minutes in the following lysis buffer: NP40 1%, NaCl 0.9%, Tris 50 mM, EDTA 1 mM, PMSF 0.4 mM, pepstatin A 4 μg/ml, leupeptin 4 μg/ml and aprotinin 4 μg/ml. The lysates were centrifuged for 15 min at 14000 rpm and the protein concentration in the supernatant was determined using a BCA protein assay kit (Pierce, Rockford, Ill., USA). The lysates were subjected to PAGE-SDS using a mini-gel apparatus (Bio-Rad Laboratories, Hercules, Calif.); 100 μg of each sample were loaded per well. Two identical gels were run each time in parallel: one gel was stained with Coomassie Brilliant Blue R-250 according to the manufacturer's protocol (Bio-Rad) and the other was electro-transferred to nitrocellulose membranes (Schleicher and Schuell, Dassel, Germany).
The nitrocellulose membranes were washed with PBS and then blocked for 1 hr with 2% bovine serum albumin (Sigma), 2.5% milk powder (Bio-Rad), Tris (Sigma) pH 7.5 10 mM, NaCl 150 mM and 0.02% thimerosal (Sigma). […] Finally, the membranes were developed using the Western Blotting Luminol Reagent (Santa Cruz Biotechnology Inc., Santa Cruz, Calif., USA), exposed to X-ray film and quantified using the NIH Image 1.63 program (National Institutes of Health, USA). Size was determined using pre-stained broad-range protein standard markers (Bio-Rad).

diabetes = settings: single subcutaneous injection in mineral oil; cited from earlier work
[1] = system: Mouse splenic purified T cells; assay: Anti-CD3-induced IFNγ secretion (ELISA); assay type: cell-based, C57BL/6J mice; settings: for anti-CD3-induced IFNγ secretion: summary of Table 1
Method: (§1) T-cell proliferation: Mouse splenic purified T cells (1×10^5) were pre-incubated with the p277 analogs p277(Val^6Val^11) (SEQ ID NO:2) or p277(Ser^6Ser^11) (SEQ ID NO:3) at the indicated concentrations for 30-60 min, and transferred to anti-CD3 coated wells in triplicate or quadruplicate in 200 μl culture medium. After 72 h of incubation (37° C., 5% CO2) the cells were pulsed with 1 μCi [^3H]-thymidine for 7 h, and [^3H] thymidine incorporation was measured using a 96-well plate beta-counter. The mean cpm±Standard Error were calculated for each triplicate or quadruplicate.
Interferon-gamma (IFNγ) secretion to the culture media was determined by using an ELISA assay (OptiEIA kits, BD Pharmingen and Pierce Endogen) following the manufacturer's instructions. Standard curves were established using mouse recombinant cytokines. The assay detection limit was 16-32 pg/ml.

[2] = system: Mouse splenic purified T cells; assay: Anti-CD3-induced T-cell proliferation; assay type: cell-based, C57BL/6J mice; settings: for anti-CD3-induced T-cell proliferation: summary of Table 1
Text: Purification of naïve T cells: Mouse spleen-cell suspensions were depleted of red blood cells by treatment with red blood lysis buffer (Sigma, St Louis, USA). T cells were then purified by negative selection with a T-cell isolation kit containing biotin-conjugated monoclonal antibodies to CD11b, CD45R, DX5 and Ter-119 (Miltenyi Biotec, Bergisch Gladbach, Germany). This procedure routinely yielded T cell preparations that were >95% positive for the CD3 marker as determined by FACS analysis.
Cells and medium: The T-cells cultures were set in RPMI-1640 supplemented with 5% FCS (Hyclon Logan, Utah) 100 U/ml penicillin, 100 μg/ml streptomycin, 50 μM 2β-ME, 12.5 mM hepes, 2 mM L-glutamine, 1 mM sodium pyruvate and non essential amino acids (biological industries 01-340-1 diluted 1:100).
The hamster anti-mouse anti-CD3 antibody was collected by TCA precipitation from 2C11 hybridoma supernatant. For the proliferation assay, non-tissue culture-treated polystyrene flat-bottom 96-well microtiter plates (Nunc 269787) were incubated overnight at 4° C. with 0.5-2 μg/ml anti-CD3 antibody.
as §1

ConA-induced hepatitis = ConA-induced hepatitis (acute liver injury); assay type: in vivo, BALB/c mice
CD4^+CD25^+ T cells = assay: Co-culture of treated CD4+CD25+ T cells with CD4+CD25- T cells; assay type: cell-based, human; settings: CD4+CD25+ treated with peptide 1 ng/ml, 2 hours; co-culture with untreated CD4+CD25-
activated A2b T cells [3] = assay: Anti-ergotypic T-cell proliferation assay; assay type: cell-based, Lewis rats; settings: rats vaccinated with peptide in IFA, 26 days after AA induction; compared to Mt3
Text: (§2) T-cell lines and clones T-cell lines were raised and expanded using antigen presenting cells (APC) and antigens or peptides as described (Mor et al., 1992). Three Lewis rat T-cell lines were used in our experiments: Anti-HSP60, raised against recombinant human HSP60 (human HSP60 is 97% identical to rat HSP60 at the aa level); Anti-p277, raised against the p277 peptide of human HSP60 (96% identical its rat counterpart at the aa level) and Anti-MBP, raised against guinea pig MBP. For ergotypic stimulation, the A2b T-cell clone, specific for the 180-188 epitope of HSP65 (van Eden et al., 1988) was used; similar results were obtained when other rat T-cell clones were used as targets. A2b expresses MHC-I molecules constitutively and CD80, CD86 and MHC-II molecules upon activation, and can present peptide epitopes to T cells. Activated A2b cells were used on day 3 of their stimulation, and resting A2b cells were used on day 14-16 of their rest cycle, unless stated otherwise.
DNA and peptide vaccination. The vectors containing the full-length cDNA of the human hsp60 gene (pHSP60) or the cDNA corresponding to aa 1-140 (pI) or aa 130-260 (pII) have been previously described (Quintana et al., 2002, Quintana et al., 2002b, Quintana et al., 2003, Quintana et al., 2000). […]
Anti-ergotypic T-cell proliferation assay. […] The cultures were harvested and cpm were determined using a beta counter. […]

activated A2b T cells [4] = assay: Anti-ergotypic cytokine response (cytokine assays); assay type: cell-based, Lewis rats; settings: rats vaccinated with peptide in IFA; response to activated A2b T cells
Text: as §2
Cytokine assays. Supernatants were collected after 72 hr of stimulation with test antigens or stimulator cells. Pharmingen's OPTEIA IL-10, IL-4 and IFNγ kits (Pharmingen, San Diego, USA) and the TGFβ1 Emax® ImmunoAssay System (Promega, Madison, USA) were used to quantify cytokine release to culture supernatants, as previously described (Quintana et al., 2002b). […]

AA = settings: DNA or peptide vaccination; Quintana et al., Ragno et al.; cited from earlier work
[5] = i.p. 330 μl, 500 ng/ml, 18 and 1 hr prior to ConA, 24 hr after ConA

In the case of polymyxin B [PMB, reference compound], the “effect of blocker on LPS-induced SOCS3 activation” value (SOCS3; LPS 100 ng/ml) is reported as “inhibited by PMB”.

For EESNTFGLQLELTEG [Mt176-90], the “expression levels of HSP60 (western blot)” value (HSP60) was “up-regulation of HSP60”.

In the case of Concanavalin A [Con A], the “expression levels of HSP60 (western blot)” value (HSP60) is reported as “triggered a similar increase in the expression levels of HSP60”.

For “VLGGGSALLRSIPALDSLTPANED [p277(Ser^6Ser^11)]”, the incidence of diabetes (diabetes) is given as “did not reduce the incidence of diabetes”, the “Percent Inhibition of IFNγ secretion” value ([1]; peptide 0.1 ng/ml) is given as 86.6% ± 11.3% and the “Percent Inhibition of IFNγ secretion” value ([1]; peptide 1 ng/ml) is given as 86.4% ± 1.3%. For the same compound, the “Percent Inhibition of IFNγ secretion” value ([1]; peptide 10 ng/ml) was 82.6% ± 4.75%, the “anti-CD3-induced IFNγ secretion” value [1] was “inhibited T-cell proliferation and IFNγ secretion” and the “anti-CD3-induced T-cell proliferation” value [2] was “inhibited T-cell proliferation and IFNγ secretion”.

With “VLGGGVALLRVIPALDSLTPANED [p277(Val^6Val^11)]” the “serum level of IL-6” value (ConA-induced hepatitis; 2 hr after ConA) was “increased the level of IL-6”, the “serum level of IL-10” value (ConA-induced hepatitis; 2 hr after ConA) was “significantly increased” and the “serum level of TNF-α” value (ConA-induced hepatitis; 2 hr after ConA) was “significantly decreased”. The “serum ALT” value (ConA-induced hepatitis; [5]) was “significantly inhibited ALT and AST secretion”, the “serum AST” value (ConA-induced hepatitis; [5]) was “significantly inhibited ALT and AST secretion” and the “Percent Inhibition of IFNγ secretion” value ([1]; peptide 0.1 ng/ml) was 94% ± 0.81%. The “Percent Inhibition of IFNγ secretion” value ([1]; peptide 1 ng/ml) was 88.9% ± 3.4%, the “Percent Inhibition of IFNγ secretion” value ([1]; peptide 10 ng/ml) was 86.7% ± 8.8% and the “anti-CD3-induced IFNγ secretion” value [1] was “inhibited T-cell proliferation and IFNγ secretion”. The “IFN-γ and TNF-α secretion, and proliferation in co-culture” value (CD4^+CD25^+ T cells) was “significantly inhibited IFN-γ and TNF-α secretion, and proliferation”, the “Percent Inhibition of proliferation” value ([2]; peptide 0.1 ng/ml) was 50% ± 19% and the “Percent Inhibition of proliferation” value ([2]; peptide 1 ng/ml) was 73% ± 7.5%. The “Percent Inhibition of proliferation” value ([2]; peptide 10 ng/ml) was 69% ± 14%, the “anti-CD3-induced T-cell proliferation” value [2] was “inhibited T-cell proliferation and IFNγ secretion” and the “expression of activated SOCS3” value (SOCS3) was “induced a marked expression of activated SOCS3 in T cells”.

For “VAGGGVTLLQAAPTLDELKLEG [MTp277, reference compound]”, the “serum level of IL-10” value (ConA-induced hepatitis; 2 hr after ConA) was “did not seem to have a significant effect on the levels of cytokines” and the “serum level of TNF-α” value (ConA-induced hepatitis; 2 hr after ConA) was “did not seem to have a significant effect on the levels of cytokines”.

In the case of KFGADARALMLQGVDLLADA [Hu3], the “anti-ergotypic proliferative response of LNC” value (activated A2b T cells [3]) is given as “significantly (p<0.05) more effective in inducing an anti-ergotypic proliferative response”, the “anti-ergotypic cytokine secretion (IFNγ, TGFβ1, IL-10, IL-4)” value (activated A2b T cells [4]) is given as “secreted IFNγ and TGFβ1, but not IL-10 or IL-4” and the “inhibition of AA by vaccination” value (AA) is given as “can also inhibit AA”.

With pertussis toxin [reference compound] the “effect of blocker on HSP60-induced SOCS3 activation” value (SOCS3) was “had no effect”.

For `N#C/C(=C/c1ccc(O)c(O)c1)C(=O)NCc1ccccc1` [AG490, reference compound], the “effect of blocker on HSP60-induced SOCS3 activation” value (SOCS3) was “abrogated the effect of HSP60on SOCS3 expression”.
